Reference: patent US11000033B2, “Ketone or oxime compound, and herbicide” (NISSAN CHEMICAL CORPORATION, priority 2014, dated 2021)

How the values were obtained:
Assay type in all cases: in vivo
Amaranthus retroflexus = test: Test Example 5: herbicidal effect by foliage application, plastic box (symbol N); details: 320 g/ha, 3 weeks after application
In short: (§1)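 Greenhouse foliar test: seedlings at 14 days, grown 25° C. to 30° C. in sterilized diluvial soil; compound applied as an aqueous dilution of an emulsion; response read 3 weeks after spraying.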

Veronica persica [1] = test: Test Example 5: herbicidal effect by foliage application, plastic box (symbol R); details: 320 g/ha, 3 weeks after application
In short: as §1

beet [2] = test: Test Example 5: effect on crop by foliage application, plastic box (symbol f); details: 320 g/ha, 3 weeks after application
In short: (§2)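 Soil: sterilized diluvial. Container: plastic box, 21 × 13 cm, 7 cm deep. Sowing: spot-like, ~1.5 cm cover. Growth: greenhouse, 25° C. to 30° C.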

[3] = tested on: Echinochloa crus-galli var. crus-galli; test: Test Example 3: herbicidal effect by foliage application, Wagner pot (symbol H); details: application herbicide amount 320 g/ha
In short: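 Herbicidal activity was rated three weeks after a foliar spray of diluted emulsion concentrate, applied at a predetermined dose to plants grown for 14 days from seed in waterlogged alluvial soil within a 25–30 °C greenhouse.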

soybean = test: Test Example 5: effect on crop by foliage application, plastic box (symbol d); details: 320 g/ha, 3 weeks after application
In short: as §2

Apera spica-venti = test: Test Example 5: herbicidal effect by foliage application, plastic box (symbol L); details: 320 g/ha, 3 weeks after application
In short: as §1

beet [4] = test: Test Example 4: effect on crop by soil treatment (symbol f); details: application herbicide amount 320 g/ha
In short: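 Sterilized diluvial soil, spot sowing, ~1.5 cm soil cover; greenhouse 25–30° C.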

Abutilon theophrasti [5] = test: Test Example 4: herbicidal effect by soil treatment (symbol M); details: application herbicide amount 320 g/ha
In short: (§3)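 Seeds were sown in sterilized diluvial soil, covered with about 1.5 cm of soil, and the soil surface was sprayed with a water-diluted emulsion of the compound at a predetermined rate. Plants grew in a greenhouse at 25° C. to 30° C.; effects were scored visually 3 weeks after application.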

Alopecurus myosuroides = test: Test Example 4: herbicidal effect by soil treatment (symbol J); details: application herbicide amount 320 g/ha
In short: as §3

Veronica persica [6] = test: Test Example 4: herbicidal effect by soil treatment (symbol R); details: application herbicide amount 320 g/ha
In short: as §3

[7] = tested on: Echinochloa oryzacola Vasing.; test: Test Example 2: herbicidal activity, application during weed generation in submerged conditions (symbol A); details: Table 23; application herbicide amount 320 g/ha; grade 0-5 by criteria of Test Example 1
In short: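 Visual herbicidal ratings, taken three weeks after dosing, reflect post-emergence water-surface application to seedlings at one to two leaves. Conditions: co-sown weeds in alluvial soil flooded to 4 cm, greenhouse held at 25° C. to 30° C.; compound given as water-diluted emulsion at a fixed herbicide amount.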

Digitaria ciliaris [8] = test: Test Example 5: herbicidal effect by foliage application, plastic box (symbol F); details: 320 g/ha, 3 weeks after application
In short: as §1

Avena fatua = test: Test Example 4: herbicidal effect by soil treatment (symbol I); details: application herbicide amount 320 g/ha
In short: as §3

Abutilon theophrasti [9] = test: Test Example 5: herbicidal effect by foliage application, plastic box (symbol M); details: 320 g/ha, 3 weeks after application
In short: as §1

rice plant = test: Test Example 5: effect on crop by foliage application, plastic box (symbol b); details: 320 g/ha, 3 weeks after application
In short: as §2

Digitaria ciliaris [10] = test: Test Example 4: herbicidal effect by soil treatment (symbol F); details: application herbicide amount 320 g/ha
In short: as §3

| Compound | N: Amaranthus retroflexus, herbicidal effect grade (Amaranthus retroflexus) | R: Veronica persica, herbicidal effect grade (Veronica persica [1]) | f: beet, effect on crop grade (beet [2]) | herbicidal effect on H (Echinochloa crus-galli var. crus-galli), grade 0-5 [3] | d: soybean, effect on crop grade (soybean) | L: Apera spica-venti, herbicidal effect grade (Apera spica-venti) | f (beet) effect on crop grade (beet [4]) | M (Abutilon theophrasti) herbicidal effect grade (Abutilon theophrasti [5]) | J (Alopecurus myosuroides) herbicidal effect grade (Alopecurus myosuroides) | R (Veronica persica) herbicidal effect grade (Veronica persica [6]) | Herbicidal effect grade, A: Echinochloa oryzacola Vasing. [7] | F: Digitaria ciliaris, herbicidal effect grade (Digitaria ciliaris [8]) | I (Avena fatua) herbicidal effect grade (Avena fatua) | M: Abutilon theophrasti, herbicidal effect grade (Abutilon theophrasti [9]) | b: directly sowed rice plant, effect on crop grade (rice plant) | F (Digitaria ciliaris) herbicidal effect grade (Digitaria ciliaris [10]) |
| --- | --- | --- | --- | --- | --- | --- | --- | --- | --- | --- | --- | --- | --- | --- | --- | --- |
| CON=C(C)CC1CC(OC(=O)C(C)(C)Oc2cccc(Cl)c2)=C(c2c(C)cc(C)cc2C)C1=O (stereo not shown) [1-065] | 2 (Herbicidal ratio of 20% or higher and lower than 40%) | 3 (Herbicidal ratio of 40% or higher and lower than 70%) | 0 (Herbicidal ratio of 5% or lower (almost no effect)) | 5 (Herbicidal ratio of 90% or more (almost completely withered)) | 4 (Herbicidal ratio of 70% or higher and lower than 90%) | 5 (Herbicidal ratio of 90% or more (almost completely withered)) | 0 (Herbicidal ratio of 5% or lower (almost no effect)) | 4 (Herbicidal ratio of 70% or higher and lower than 90%) | 5 (Herbicidal ratio of 90% or more (almost completely withered)) | 0 (Herbicidal ratio of 5% or lower (almost no effect)) | 4 (Herbicidal ratio of 70% or higher and lower than 90%) | 5 (Herbicidal ratio of 90% or more (almost completely withered)) | 3 (Herbicidal ratio of 40% or higher and lower than 70%) | 4 (Herbicidal ratio of 70% or higher and lower than 90%) | 5 (Herbicidal ratio of 90% or more (almost completely withered)) | 5 (Herbicidal ratio of 90% or more (almost completely withered)) |
| CCC(C)C(CC1CC(O)=C(c2c(C)cc(C)cc2C)C1=O)=NOC (stereo not shown) [1-066] | 0 (Herbicidal ratio of 5% or lower (almost no effect)) | 3 (Herbicidal ratio of 40% or higher and lower than 70%) | 0 (Herbicidal ratio of 5% or lower (almost no effect)) | 5 (Herbicidal ratio of 90% or more (almost completely withered)) | 0 (Herbicidal ratio of 5% or lower (almost no effect)) | 4 (Herbicidal ratio of 70% or higher and lower than 90%) | 0 (Herbicidal ratio of 5% or lower (almost no effect)) | 0 (Herbicidal ratio of 5% or lower (almost no effect)) | 5 (Herbicidal ratio of 90% or more (almost completely withered)) | 0 (Herbicidal ratio of 5% or lower (almost no effect)) | 2 (Herbicidal ratio of 20% or higher and lower than 40%) | 4 (Herbicidal ratio of 70% or higher and lower than 90%) | 0 (Herbicidal ratio of 5% or lower (almost no effect)) | 1 (Herbicidal ratio of 5% or higher and lower than 20%) | 5 (Herbicidal ratio of 90% or more (almost completely withered)) | 4 (Herbicidal ratio of 70% or higher and lower than 90%) |
| CON=C(C)CC1CC(OC(=O)COc2ccccc2OC)=C(c2c(C)cc(C)cc2C)C1=O (stereo not shown) [1-067] | 4 (Herbicidal ratio of 70% or higher and lower than 90%) | 3 (Herbicidal ratio of 40% or higher and lower than 70%) | 1 (Herbicidal ratio of 5% or higher and lower than 20%) | 5 (Herbicidal ratio of 90% or more (almost completely withered)) | 4 (Herbicidal ratio of 70% or higher and lower than 90%) | 5 (Herbicidal ratio of 90% or more (almost completely withered)) | 0 (Herbicidal ratio of 5% or lower (almost no effect)) | 5 (Herbicidal ratio of 90% or more (almost completely withered)) | 5 (Herbicidal ratio of 90% or more (almost completely withered)) | 0 (Herbicidal ratio of 5% or lower (almost no effect)) | 4 (Herbicidal ratio of 70% or higher and lower than 90%) | 5 (Herbicidal ratio of 90% or more (almost completely withered)) | 3 (Herbicidal ratio of 40% or higher and lower than 70%) | 5 (Herbicidal ratio of 90% or more (almost completely withered)) | 5 (Herbicidal ratio of 90% or more (almost completely withered)) | 5 (Herbicidal ratio of 90% or more (almost completely withered)) |
| CON=C(C)CC1CC(OC(=O)COc2cccc(OC)c2)=C(c2c(C)cc(C)cc2C)C1=O (stereo not shown) [1-068] | 4 (Herbicidal ratio of 70% or higher and lower than 90%) | 3 (Herbicidal ratio of 40% or higher and lower than 70%) | 3 (Herbicidal ratio of 40% or higher and lower than 70%) | 5 (Herbicidal ratio of 90% or more (almost completely withered)) | 4 (Herbicidal ratio of 70% or higher and lower than 90%) | 5 (Herbicidal ratio of 90% or more (almost completely withered)) | 0 (Herbicidal ratio of 5% or lower (almost no effect)) | 4 (Herbicidal ratio of 70% or higher and lower than 90%) | 5 (Herbicidal ratio of 90% or more (almost completely withered)) | 0 (Herbicidal ratio of 5% or lower (almost no effect)) | 5 (Herbicidal ratio of 90% or more (almost completely withered)) | 5 (Herbicidal ratio of 90% or more (almost completely withered)) | 3 (Herbicidal ratio of 40% or higher and lower than 70%) | 5 (Herbicidal ratio of 90% or more (almost completely withered)) | 5 (Herbicidal ratio of 90% or more (almost completely withered)) | 5 (Herbicidal ratio of 90% or more (almost completely withered)) |
